# Reference: patent publication US11186588B2 (AYUMI PHARMACEUTICAL CORPORATION, priority 2017, dated 2021)
# Experiments:
# NF-κB = NF-κB reporter gene assay (TNF-α stimulated A549/NF-κB-luc cells); type: cell-based; details: Homo sapiens, TNF-α stimulation
# Summary of the method: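 A549 cells stably carrying an NF-κB luciferase reporter were preincubated with compound for 1 h, then stimulated with TNF-α for 3 h. Luminescence was read with Steady-Glo, and inhibition was scaled between blank and DMSO control wells. IC50 was obtained by curve fitting.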
# [1] = system: type II collagen-induced arthritis; assay: Rat type II collagen-induced arthritis model evaluation test; type: in vivo, LEW/CrlCrlj rats; details: oral 6 mg/mL solution at 5 mL/kg once a day from Day 12, hind limb volume on Day 21, rats
# Protocol: In order to evaluate the inhibitory action for autoimmune and inflammatory diseases of the present compounds, the evaluation of Rat type II collagen-induced arthritis model was carried out. The specific method is described below.
# 0.05 mol/L acetic acid was added to bovine type II collagen (Collagen Research Center, Cat No. K42) so that it became 2 mg/mL on the day before primary sensitization and secondary sensitization, and the mixture was allowed to stand overnight in a refrigerator to dissolve the material. Immediately before sensitization, it was mixed with an equal amount of Freund's incomplete adjuvant (available from Difco, Cat No. 263910) to prepare an emulsion for sensitization.
# An appropriate amount of each compound was weighed, triturated with an agate mortar, and suspended or dissolved in 1% methyl cellulose solution to prepare 6 mg/mL solution.
# LEW/CrlCrlj rats (female, purchased from Charles River Laboratories Japan, Inc.) were weighted on the day of primary sensitization (Day 0) and primary grouped to an arthritis non-induced group and an arthritis induced group based on the measured body weight using a random number. The rats (other than the arthritis non-induced group) were thereafter administrated the emulsion for sensitization ([…]) into the skin of the dorsum (divided into 5 portions) under general anesthesia with isoflurane inhalation (available from Mylan Seiyaku Ltd.). Seven days after the primary sensitization (Day 7), the rats (other than the arthritis non-induced group) were manually held in hands and administered the emulsion for sensitization (100 μL) into the skin of the tail. On Day 12, the rats developing arthritis were selected, a random number was used to avoid difference in an average hind limb volume between the groups, and the arthritis induced group was secondary grouped to a control group and each compound-administered group, wherein each group contained 8 samples. The rats were forced orally administered 1% methyl cellulose solution (arthritis non-induced group and control group) or each administration solution comprising the compound (each compound-administered group) at a dose of 5 mL/kg into stomach using a feeding needle once a day from Day 12. The volume of both hind limbs of each rat was measured using a plethysmometer (from Unicom) on Day 0, 4, 7, 12, 14, 18 and 21.
# (Calculation of Limb Edema Suppression Rate) The limb edema suppression rate (%) was calculated by the following equation using Microsoft EXCEL 2010. Limb edema suppression rate (%)=100−{(average value of hind limb volume of each compound-administered group on Day 21)−(average value of hind limb volume of arthritis non-induced group on Day 21))/(average value of hind limb volume of control group on Day 21)−(average value of hind limb volume of arthritis non-induced group on Day 21)}×100
# IL-6 production = assay: LPS-induced IL-6 production model test; type: in vivo, C57BL/6J mice; details: Mus musculus, 1 h; 10 mg/kg oral, 30 min before LPS 1 mg/kg i.p., serum IL-6 60 min after LPS, mice
# Protocol: In order to evaluate the inhibitory activity of inflammatory cytokine production in the present compounds, LPS-induced IL-6 production model evaluation was carried out. The specific method is described below.
# An appropriate amount of each compound was weighed, triturated with an agate mortar, and suspended or dissolved in 1% methyl cellulose solution to prepare 1 mg/mL solution.
# C57BL/6J mice (male, Purchaser: Charles River Laboratories Japan, Inc.) were weighted, before divided into normal group, control group and each compound-administered group based on the measured body weight using a random number, wherein each group contained 6 samples. The mice were manually held in hands and forced orally administered the 1% methyl cellulose solution (normal and control group) or each administration solution comprising the compound (each compound-administered group) at a dose of 10 mL/kg into stomach using a feeding needle. After 30 minutes from administration of the 1% methyl cellulose solution or each compound administration solution, the mice were manually held in hands and intraperitoneally administered physiological saline (normal group) or LPS solution (control and each compound-administered group) at a dose of 1 mg/kg. After 60 minutes from administration of the LPS solution, whole blood was collected from the abdominal vena cava of each mouse under isoflurane inhalation anesthesia (available from Mylan Seiyaku Ltd.), and the mice were euthanized. The collected blood was allowed to stand at room temperature for one hour, and then centrifuged at 1,500 G for 10 minutes to collect a serum (supernatant). The collected serum was stored in a deep freezer set at −80° C. until the measurement of IL-6 in the serum. The IL-6 concentration in the serum of each mouse was measured by a commercially available kit (available from R&D systems, Cat No. M6000B), according to the protocol attached thereto.
# The IL-6 production inhibition rate (%) was calculated by the following equation using Microsoft EXCEL 2010. IL-6 production inhibition rate (%)=100−{(average value of IL-6 concentration in serum of each compound-administered group)−(average value of IL-6 concentration in serum of normal group))/(average value of IL-6 concentration in serum of control group)−(average value of IL-6 concentration in serum of normal group)}×100
SMILES,IC50 (NF-κB),Limb edema suppression rate(%) [1],inhibition in vivo at 10 mg/kg (IL-6 production)
"Cc1sc2c(c1C)C(c1ccc(Cl)cc1)=NN(Cc1ccccn1)c1nnc(C)n1-2 [Example 5, 4-(4-chlorophenyl)-2,3,9-trimethyl-6-(pyridin-2-ylmethyl)-6H-thieno[2,3-e][1,2,4]triazolo[3,4-c][1,2,4]triazepine]",27.5 nM,92.9%,77.5%
"Cc1sc2c(c1C)C(c1ccc(Cl)cc1)=NN(Cc1cccnc1Cl)c1nnc(C)n1-2 [Example 38, 4-(4-chlorophenyl)-6-((2-chloropyridin-3-yl)methyl)-2,3,9-trimethyl-6H-thieno[2,3-e][1,2,4]triazolo[3,4-c][1,2,4]triazepine]",106 nM,11.9%,20.2%
"CC(=O)Nc1ccc(C2=NN(Cc3cccnc3)c3nnc(C)n3-c3sc(C)c(C)c32)cc1 [Example 71, N-(4-(2,3,9-trimethyl-6-(pyridin-3-ylmethyl)-6H-thieno[2,3-e][1,2,4]triazolo[3,4-c][1,2,4]triazepin-4-yl)phenyl)acetamide]",634 nM,93.8%,79%

# More lines, main results first:
IC50 (NF-κB),SMILES,Limb edema suppression rate(%) [1],inhibition in vivo at 10 mg/kg (IL-6 production)
50.3 nM,"Cc1sc2c(c1C)C(c1ccc(Cl)cc1)=NN(Cc1cccnc1F)c1nnc(C)n1-2 [Example 25, 4-(4-chlorophenyl)-6-((2-fluoropyridin-3-yl)methyl)-2,3,9-trimethyl-6H-thieno[2,3-e][1,2,4]triazolo[3,4-c][1,2,4]triazepine]",39.8%,26.3%
150 nM,"Cc1sc2c(c1C)C(c1ccccc1)=NN(Cc1ccccn1)c1nnc(C)n1-2 [Example 31, 2,3,9-trimethyl-4-phenyl-6-(pyridin-2-ylmethyl)-6H-thieno[2,3-e][1,2,4]triazolo[3,4-c][1,2,4]triazepine]",68.9%,57.5%
